Data: ChEMBL document CHEMBL4699440, “Comprehensive review on the anti-bacterial activity of 1,2,3-triazole hybrids” (Eur J Med Chem, 2019)
In brackets after ≈: the same amount, converted by molar mass. One block for each molecule: values may come before it.

What was measured:
Assay type in all cases: functional
Bacillus cereus [1] = test: Antibacterial activity against Bacillus cereus MTCC 430 incubated for 24 hrs by macrodilution tube method
Staphylococcus aureus [2] = test: Antibacterial activity against Staphylococcus aureus MTCC 96 incubated for 24 hrs by macrodilution tube method
Bacillus cereus [3] = test: Antibacterial activity against Bacillus cereus by agar dilution method
Staphylococcus aureus [4] = test: Antibacterial activity against Staphylococcus aureus by agar dilution method
Escherichia coli [5] = test: Antibacterial activity against Escherichia coli by agar dilution method
Pseudomonas aeruginosa [6] = test: Antibacterial activity against Pseudomonas aeruginosa by agar dilution method
Enterococcus faecium = test: Antibacterial activity against vancomycin-resistant Enterococcus faecium by CLSI-based broth dilution method; settings: time 24 hrs
Staphylococcus aureus [7] = test: Antibacterial activity against methicillin-sensitive Staphylococcus aureus by CLSI-based broth dilution method
Klebsiella pneumoniae = test: Antibacterial activity against Klebsiella pneumoniae ATCC 27736 by CLSI-based broth dilution method
Pseudomonas aeruginosa [8] = test: Antibacterial activity against Pseudomonas aeruginosa ATCC 27853 by CLSI-based broth dilution method
Staphylococcus aureus [9] = test: Antibacterial activity against methicillin-resistant Staphylococcus aureus ATCC 25923 by CLSI-based broth dilution method
Escherichia coli [10] = test: Antibacterial activity against ESBL-producing Escherichia coli ATCC 25925 by CLSI-based broth dilution method
Penicillium chrysogenum = test: Antifungal activity against Penicillium chrysogenum NCIM 723 incubated for 48 hrs
Bacillus cereus [11] = test: Antibacterial activity against Bacillus cereus ATCC 6630 incubated for 24 hrs
[12] = test system: Sphingomonas paucimobilis; test: Antibacterial activity against Flavobacterium devorans ATCC 10829 incubated for 24 hrs
Curvularia lunata = test: Antifungal activity against Curvularia lunata NCIM 1131 incubated for 48 hrs
Micrococcus luteus = test: Antibacterial activity against Micrococcus Luteus ATCC 398 incubated for 24 hrs
Escherichia coli [13] = test: Antibacterial activity against Escherichia coli NCIM 2256 incubated for 24 hrs
Staphylococcus aureus [14] = test: Antibacterial activity against Staphylococcus aureus ATCC 29737 incubated for 24 hrs
Aspergillus niger = test: Antifungal activity against Aspergillus niger NCIM 1196 incubated for 48 hrs
Pseudomonas fluorescens = test: Antibacterial activity against Pseudomonas fluorescens NCIM 2173 incubated for 24 hrs

SMILES: CC(C)c1ccc(C2C3=C(CCCC3=O)Oc3cc4ccc(OCc5cn(-c6ccnc7cc(Cl)ccc67)nn5)cc4cc32)cc1 (stereo not drawn)
- MIC (Bacillus cereus [1]): 16 µg/mL (≈ 25.5 µM)
- MIC (Staphylococcus aureus [2]): 16 µg/mL (≈ 25.5 µM)

SMILES: COc1ccc(-n2cc(COc3ccc(-c4nc5cc(C(=N)NC(C)C)ccc5[nH]4)cc3)nn2)cc1
- MIC (Enterococcus faecium): 8 µg/mL (≈ 16.6 µM)
- MIC (Staphylococcus aureus [7]): 8 µg/mL (≈ 16.6 µM)
- MIC (Klebsiella pneumoniae): 8 µg/mL (≈ 16.6 µM)
- MIC (Pseudomonas aeruginosa [8]): 8 µg/mL (≈ 16.6 µM)
- MIC (Staphylococcus aureus [9]): 8 µg/mL (≈ 16.6 µM)
- MIC (Escherichia coli [10]): 8 µg/mL (≈ 16.6 µM)

SMILES: Cc1cc(OCc2cn(Cc3cccc(Cl)c3)nn2)cc2oc(=O)ccc12
- MIC (Penicillium chrysogenum): 2 µg/mL (≈ 5.24 µM)
- MIC (Bacillus cereus [11]): 2 µg/mL (≈ 5.24 µM)
- MIC [12]: 2 µg/mL (≈ 5.24 µM)
- MIC (Curvularia lunata): 2 µg/mL (≈ 5.24 µM)
- MIC (Micrococcus luteus): 2 µg/mL (≈ 5.24 µM)
- MIC (Escherichia coli [13]): 2 µg/mL (≈ 5.24 µM)
- MIC (Staphylococcus aureus [14]): 2 µg/mL (≈ 5.24 µM)
- MIC (Aspergillus niger): 2 µg/mL (≈ 5.24 µM)
- MIC (Pseudomonas fluorescens): 2 µg/mL (≈ 5.24 µM)

SMILES: Cc1cc(OCc2cn(Cc3ccc(Cl)cc3)nn2)cc2oc(=O)ccc12
- MIC (Penicillium chrysogenum): 2 µg/mL (≈ 5.24 µM)
- MIC (Bacillus cereus [11]): 2 µg/mL (≈ 5.24 µM)
- MIC [12]: 2 µg/mL (≈ 5.24 µM)
- MIC (Curvularia lunata): 2 µg/mL (≈ 5.24 µM)
- MIC (Micrococcus luteus): 2 µg/mL (≈ 5.24 µM)
- MIC (Escherichia coli [13]): 2 µg/mL (≈ 5.24 µM)
- MIC (Staphylococcus aureus [14]): 2 µg/mL (≈ 5.24 µM)
- MIC (Aspergillus niger): 2 µg/mL (≈ 5.24 µM)
- MIC (Pseudomonas fluorescens): 2 µg/mL (≈ 5.24 µM)

SMILES: Clc1ccc(-n2cc(COc3ccc(-c4nc5cc(C6=NCCN6)ccc5[nH]4)cc3)nn2)cc1
- MIC (Enterococcus faecium): 8 µg/mL (≈ 17 µM)
- MIC (Staphylococcus aureus [7]): 8 µg/mL (≈ 17 µM)
- MIC (Klebsiella pneumoniae): 8 µg/mL (≈ 17 µM)
- MIC (Pseudomonas aeruginosa [8]): 8 µg/mL (≈ 17 µM)
- MIC (Staphylococcus aureus [9]): 8 µg/mL (≈ 17 µM)
- MIC (Escherichia coli [10]): 8 µg/mL (≈ 17 µM)

SMILES: c1ccc(-n2cc(COc3ccc(-c4nc5cc(C6=NCCN6)ccc5[nH]4)cc3)nn2)cc1
- MIC (Enterococcus faecium): 8 µg/mL (≈ 18.4 µM)
- MIC (Staphylococcus aureus [7]): 8 µg/mL (≈ 18.4 µM)
- MIC (Klebsiella pneumoniae): 8 µg/mL (≈ 18.4 µM)
- MIC (Pseudomonas aeruginosa [8]): 8 µg/mL (≈ 18.4 µM)
- MIC (Staphylococcus aureus [9]): 8 µg/mL (≈ 18.4 µM)
- MIC (Escherichia coli [10]): 8 µg/mL (≈ 18.4 µM)

SMILES: COc1ccc(-c2nn(-c3ccccc3)cc2/C=N/NC(=O)c2cccc(-n3cc(-c4ccccc4)nn3)c2)cc1
- MIC (Bacillus cereus [3]): 2 µg/mL (≈ 3.71 µM)
- MIC (Staphylococcus aureus [4]): 2 µg/mL (≈ 3.71 µM)
- MIC (Escherichia coli [5]): 2 µg/mL (≈ 3.71 µM)
- MIC (Pseudomonas aeruginosa [6]): 2 µg/mL (≈ 3.71 µM)

SMILES: N=C(N)c1ccc2[nH]c(-c3ccc(OCc4cn(-c5ccc(Cl)cc5)nn4)cc3)nc2c1
- MIC (Enterococcus faecium): 16 µg/mL (≈ 36 µM)
- MIC (Staphylococcus aureus [7]): 16 µg/mL (≈ 36 µM)
- MIC (Klebsiella pneumoniae): 16 µg/mL (≈ 36 µM)
- MIC (Pseudomonas aeruginosa [8]): 16 µg/mL (≈ 36 µM)
- MIC (Staphylococcus aureus [9]): 16 µg/mL (≈ 36 µM)
- MIC (Escherichia coli [10]): 16 µg/mL (≈ 36 µM)

SMILES: O=C1CCCC2=C1C(c1ccccc1)c1cc3cc(OCc4cn(-c5ccnc6cc(Cl)ccc56)nn4)ccc3cc1O2 (stereo not drawn)
- MIC (Bacillus cereus [1]): 16 µg/mL (≈ 27.3 µM)
- MIC (Staphylococcus aureus [2]): 16 µg/mL (≈ 27.3 µM)

SMILES: CC1(C)CC(=O)C2=C(C1)Oc1cc3ccc(OCc4cn(-c5ccnc6cc(Cl)ccc56)nn4)cc3cc1C2c1ccccc1 (stereo not drawn)
- MIC (Bacillus cereus [1]): 16 µg/mL (≈ 26.1 µM)
- MIC (Staphylococcus aureus [2]): 16 µg/mL (≈ 26.1 µM)

SMILES: CC(C)NC(=N)c1ccc2[nH]c(-c3ccc(OCc4cn(Cc5ccccc5)nn4)cc3)nc2c1
- MIC (Enterococcus faecium): 8 µg/mL (≈ 17.2 µM)
- MIC (Staphylococcus aureus [7]): 8 µg/mL (≈ 17.2 µM)
- MIC (Klebsiella pneumoniae): 8 µg/mL (≈ 17.2 µM)
- MIC (Pseudomonas aeruginosa [8]): 8 µg/mL (≈ 17.2 µM)
- MIC (Staphylococcus aureus [9]): 8 µg/mL (≈ 17.2 µM)
- MIC (Escherichia coli [10]): 8 µg/mL (≈ 17.2 µM)

SMILES: COc1ccc(-n2cc(COc3ccc(-c4nc5cc(C6=NCCN6)ccc5[nH]4)cc3)nn2)cc1
- MIC (Enterococcus faecium): 8 µg/mL (≈ 17.2 µM)
- MIC (Staphylococcus aureus [7]): 8 µg/mL (≈ 17.2 µM)
- MIC (Klebsiella pneumoniae): 8 µg/mL (≈ 17.2 µM)
- MIC (Pseudomonas aeruginosa [8]): 8 µg/mL (≈ 17.2 µM)
- MIC (Staphylococcus aureus [9]): 8 µg/mL (≈ 17.2 µM)
- MIC (Escherichia coli [10]): 8 µg/mL (≈ 17.2 µM)

SMILES: COc1ccc(-n2cc(COc3ccc(-c4nc5cc(C(=N)N)ccc5[nH]4)cc3)nn2)cc1
- MIC (Enterococcus faecium): 16 µg/mL (≈ 36.4 µM)
- MIC (Staphylococcus aureus [7]): 16 µg/mL (≈ 36.4 µM)
- MIC (Klebsiella pneumoniae): 16 µg/mL (≈ 36.4 µM)
- MIC (Pseudomonas aeruginosa [8]): 16 µg/mL (≈ 36.4 µM)
- MIC (Staphylococcus aureus [9]): 16 µg/mL (≈ 36.4 µM)
- MIC (Escherichia coli [10]): 16 µg/mL (≈ 36.4 µM)

Next, values leading:

- MIC (Bacillus cereus [3]): 2 µg/mL (≈ 3.51 µM)
- MIC (Staphylococcus aureus [4]): 2 µg/mL (≈ 3.51 µM)
- MIC (Escherichia coli [5]): 2 µg/mL (≈ 3.51 µM)
- MIC (Pseudomonas aeruginosa [6]): 2 µg/mL (≈ 3.51 µM)
SMILES: COc1ccc(-c2nn(-c3ccccc3)cc2/C=N/NC(=O)c2cccc(-n3cc(-c4ccccc4)nn3)c2)cc1OC

- MIC (Penicillium chrysogenum): 2 µg/mL (≈ 5.44 µM)
- MIC (Bacillus cereus [11]): 2 µg/mL (≈ 5.44 µM)
- MIC [12]: 2 µg/mL (≈ 5.44 µM)
- MIC (Curvularia lunata): 2 µg/mL (≈ 5.44 µM)
- MIC (Micrococcus luteus): 2 µg/mL (≈ 5.44 µM)
- MIC (Escherichia coli [13]): 2 µg/mL (≈ 5.44 µM)
- MIC (Staphylococcus aureus [14]): 2 µg/mL (≈ 5.44 µM)
- MIC (Aspergillus niger): 2 µg/mL (≈ 5.44 µM)
- MIC (Pseudomonas fluorescens): 2 µg/mL (≈ 5.44 µM)
SMILES: O=c1cc(OCc2cn(Cc3ccc(Cl)cc3)nn2)c2ccccc2o1

- MIC (Bacillus cereus [1]): 16 µg/mL (≈ 25.5 µM)
- MIC (Staphylococcus aureus [2]): 16 µg/mL (≈ 25.5 µM)
SMILES: Cc1ccc(C2C3=C(CC(C)(C)CC3=O)Oc3cc4ccc(OCc5cn(-c6ccnc7cc(Cl)ccc67)nn5)cc4cc32)cc1 (stereo not drawn)

- MIC (Bacillus cereus [3]): 4 µg/mL (≈ 7.35 µM)
- MIC (Staphylococcus aureus [4]): 4 µg/mL (≈ 7.35 µM)
- MIC (Escherichia coli [5]): 4 µg/mL (≈ 7.35 µM)
- MIC (Pseudomonas aeruginosa [6]): 4 µg/mL (≈ 7.35 µM)
SMILES: O=C(N/N=C/c1cn(-c2ccccc2)nc1-c1ccc(Cl)cc1)c1cccc(-n2cc(-c3ccccc3)nn2)c1

- MIC (Bacillus cereus [3]): 8 µg/mL (≈ 15.7 µM)
- MIC (Staphylococcus aureus [4]): 8 µg/mL (≈ 15.7 µM)
- MIC (Escherichia coli [5]): 8 µg/mL (≈ 15.7 µM)
- MIC (Pseudomonas aeruginosa [6]): 8 µg/mL (≈ 15.7 µM)
SMILES: O=C(N/N=C/c1cn(-c2ccccc2)nc1-c1ccccc1)c1cccc(-n2cc(-c3ccccc3)nn2)c1

- MIC (Bacillus cereus [3]): 2 µg/mL (≈ 3.82 µM)
- MIC (Staphylococcus aureus [4]): 2 µg/mL (≈ 3.82 µM)
- MIC (Escherichia coli [5]): 2 µg/mL (≈ 3.82 µM)
- MIC (Pseudomonas aeruginosa [6]): 2 µg/mL (≈ 3.82 µM)
SMILES: Cc1ccc(-c2nn(-c3ccccc3)cc2/C=N/NC(=O)c2cccc(-n3cc(-c4ccccc4)nn3)c2)cc1

- MIC (Bacillus cereus [1]): 16 µg/mL (≈ 25.2 µM)
- MIC (Staphylococcus aureus [2]): 16 µg/mL (≈ 25.2 µM)
SMILES: O=C1CCCC2=C1C(c1cccc3ccccc13)c1cc3cc(OCc4cn(-c5ccnc6cc(Cl)ccc56)nn4)ccc3cc1O2 (stereo not drawn)

- MIC (Bacillus cereus [3]): 2 µg/mL (≈ 3.88 µM)
- MIC (Staphylococcus aureus [4]): 2 µg/mL (≈ 3.88 µM)
- MIC (Escherichia coli [5]): 2 µg/mL (≈ 3.88 µM)
- MIC (Pseudomonas aeruginosa [6]): 2 µg/mL (≈ 3.88 µM)
SMILES: O=C(N/N=C/c1cn(-c2ccccc2)nc1-c1cccs1)c1cccc(-n2cc(-c3ccccc3)nn2)c1
